Test results taken from US7422862B2, “Methods for identifying modulators of apoptosis” (The Burnham Institute, priority 2001, dated 2008).

Assays:
[1] = tested on: HCT116 parental cells; experiment: STS-induced apoptosis in HCT116 parental cells; type: cell-based, human
[2] = tested on: endogenous Bax protein; experiment: Subcellular fractionation and immunoblot of endogenous Bax after STS; type: cell-based; conditions: Cos7 cells, untagged peptides, STS
Procedure: (A-B) Humanin peptide prevents STS-induced Bax translocation in vivo. Cos-7 cells were first transfected with GFP-Bax plasmids. After 24 hrs, untagged wild-type or C8P mutant Humanin peptides were introduced into cells using ChariotTM reagent, and 2 h later cells were treated with 1 μM STS. After 4 h, the percentage of cells with translocated Bax was determined (mean±SD; n=3) by confocal microscopy (A) and representative photomicrographs (B). (C) Wild-type or C8P mutant Humanin peptides were introduced into Cos7 cells using ChariotTM reagent. Cytosolic (C) and mitochondria-containing (M) fractions were isolated by differential centrifugation 23 and analyzed by immunoblotting using anti-Bax (top), Hsp60 (middle) (mitochondrial marker), or Tubulin (bottom) (cytosol marker) antibodies. (D) HN or mutant control double-strand siRNAs were transfected into SF268 cells. After 48 h, cells were cultured without (Control) or with 0.1 uM STS. After 24 hr, cells were fractionated and analyzed by immunoblotting as above. […] After 3 h at 30° C., mitochondria were centrifuged and the resulting pellets (P) and supernatants (S) were analyzed by immunoblotting using anti-Cytochrome c (top), Hsp60 (middle), and Bax (bottom) antibodies. […]
These findings were also confirmed by subcellular fractionation, where cytosol and mitochondria-enriched heavy membrane preparations were prepared from Cos7 cells transduced with untagged Humanin or Humanin(C8P) peptides, and the relative amounts of endogenous Bax protein in these two fractions were measured by immunoblot analysis of samples normalized for cell-equivalents. […] Differences in the relative potency of Humanin at blocking Bax translocation as measured by microscopy (FIG. 7A) versus cell fractionation methods (FIG. 7C) can be explained by differences in the sensitivity of the assays, or could possibly indicate that even in cells where some Bax translocation has occurred, less of the total Bax protein associated with mitochondria. […]

[3] = biological target: T1, BaxΔTM (Homo sapiens, UniProt Q07812); experiment: Co-immunoprecipitation of BaxΔTM with GFP-TM(Bax); type: binding; conditions: lysates pre-incubated with peptide
T1 construct: a C-terminally truncated Bax protein (residues 1-169) (BaxΔTM); expressed in transfected cells; host or cells: HEK293T (lysates mixed in vitro)
Procedure: (A-B) Humanin peptide prevents STS-induced Bax translocation in vivo. Cos-7 cells were first transfected with GFP-Bax plasmids. After 24 hrs, untagged wild-type or C8P mutant Humanin peptides were introduced into cells using ChariotTM reagent, and 2 h later cells were treated with 1 μM STS. After 4 h, the percentage of cells with translocated Bax was determined (mean±SD; n=3) by confocal microscopy (A) and representative photomicrographs (B). (C) Wild-type or C8P mutant Humanin peptides were introduced into Cos7 cells using ChariotTM reagent. Cytosolic (C) and mitochondria-containing (M) fractions were isolated by differential centrifugation 23 and analyzed by immunoblotting using anti-Bax (top), Hsp60 (middle) (mitochondrial marker), or Tubulin (bottom) (cytosol marker) antibodies. (D) HN or mutant control double-strand siRNAs were transfected into SF268 cells. After 48 h, cells were cultured without (Control) or with 0.1 uM STS. After 24 hr, cells were fractionated and analyzed by immunoblotting as above. (E) Isolated mitochondria were mixed with 400 ng Bax protein, with or without preincubating Bax with 100 uM Humanin or Humanin(C8P) peptides for 10 min. After 3 h at 30° C., mitochondria were centrifuged and the resulting pellets (P) and supernatants (S) were analyzed by immunoblotting using anti-Cytochrome c (top), Hsp60 (middle), and Bax (bottom) antibodies. […]

[4] = biological target: T2, Bax (S184K) (Mus musculus, UniProt Q07813, S184K); experiment: Yeast two-hybrid assay; type: binding; conditions: EGY48 cells, pGilda-Bax (S184K) and pYESTrp-Humanin
T2 construct: expressed in transfected cells; host or cells: S. cerevisiae EGY48
Source text: A yeast two-hybrid system is designed to screen a cDNA library for a gene encoding a polypeptide that interacts with a known target (bait) polypeptide (Golemis, et al., In Current Protocols in Molecular Biology, John Wiley & Sons, Inc., Ch.20.0 and 20.1.(1996); Mendelsohn and Brent, Current Opinion in Biotechnology 5:482-486 (1994)). In this experiment, a S184K (a serine at position 184 in the transmembrane domain mutated to a lysine) mutant of mouse Bax was used as a bait, since the wild type Bax induces cell death in yeast.
Bax (S184K) cDNA was constructed in a pgilda yeast expression vector at EcoRV Xhol sites, producing a LexA-Bax fusion polypeptide. The prokaryotic LexA polypeptide, which functions as the DNA binding domain and binds to LexA operators, was used. A human adult testes cDNA library in a pYESTrp vector was purchased from Invitrogen. This library contains library cDNA fused with a B42 transcription activation domain (an 88-residue acidic E. coli peptide). The pGilda-Bax (S184K) and cDNA library plasmids were co-transfected into EGY48 yeast cells together with a reporter plasmid pSH18-34. The transformants were cultured on leucine-deficient galactose-containing media, which induces gene expression through the GAL1 promoter located within both the pGilda and pYESTrp vectors. […]

T2 sequence (Q07813 whole entry S184K): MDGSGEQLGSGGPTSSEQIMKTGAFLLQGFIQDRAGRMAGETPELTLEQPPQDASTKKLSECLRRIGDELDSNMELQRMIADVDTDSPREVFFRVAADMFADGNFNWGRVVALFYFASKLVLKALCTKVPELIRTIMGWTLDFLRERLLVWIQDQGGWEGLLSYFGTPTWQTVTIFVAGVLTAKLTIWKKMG
T1 sequence (Q07812 1-169, stated change not applied): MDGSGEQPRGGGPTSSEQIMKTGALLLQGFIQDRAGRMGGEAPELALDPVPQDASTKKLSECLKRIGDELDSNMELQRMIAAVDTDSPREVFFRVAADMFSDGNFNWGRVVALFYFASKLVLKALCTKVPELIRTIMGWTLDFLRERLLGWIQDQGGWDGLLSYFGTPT
T1 sequence (Q07812 170-192 partner limits assumed): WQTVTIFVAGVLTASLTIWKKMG

Row | Substance | reduction of percentage of cells undergoing STS-induced apoptosis [1] | Bax translocation by subcellular fractionation [2] | interaction of BaxΔTM with GFP-TM [3] | yeast growth on Leu-deficient media (two-hybrid interaction) [4]
1 | GFP-HN: Wild-type full-length Humanin fused to Green Fluorescent Protein | about half |  |  | 
2 | Humanin: 24 amino acid polypeptide, cytosolic form of human Humanin (SEQ ID NO:2); used as synthetic peptide or expressed fusion |  | reduced | immunoprecipitated | grew on Leu-media
